In US20210115047A1, “CDPK1 INHIBITORS, COMPOSITIONS AND METHODS RELATED THERETO” (Vyera Pharmaceutical, LLC, priority 2017, published 2021):

Biological target: T1, T. gondii CDPK1 (tgCDPK1) (Toxoplasma gondii, UniProt Q9BJF5)
T1 sequence (Q9BJF5 1-507): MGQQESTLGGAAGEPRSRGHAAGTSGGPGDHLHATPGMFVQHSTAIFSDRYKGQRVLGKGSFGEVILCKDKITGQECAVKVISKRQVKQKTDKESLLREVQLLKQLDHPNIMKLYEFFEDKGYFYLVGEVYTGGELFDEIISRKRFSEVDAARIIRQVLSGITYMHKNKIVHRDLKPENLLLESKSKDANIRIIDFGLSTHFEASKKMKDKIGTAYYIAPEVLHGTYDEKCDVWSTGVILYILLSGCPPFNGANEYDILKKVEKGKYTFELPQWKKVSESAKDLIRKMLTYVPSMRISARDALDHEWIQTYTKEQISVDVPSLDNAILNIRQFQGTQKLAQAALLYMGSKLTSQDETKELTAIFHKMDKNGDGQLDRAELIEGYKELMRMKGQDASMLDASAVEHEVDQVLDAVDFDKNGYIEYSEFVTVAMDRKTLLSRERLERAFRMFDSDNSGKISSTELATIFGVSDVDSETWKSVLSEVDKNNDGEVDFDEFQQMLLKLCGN
Assay: Inhibition of T. gondii CDPK1 (tgCDPK1), IC50 determination
Assay type: biochemical
Settings: at least three independent replicates per compound
Protocol: Certain of the compounds prepared as described above were assayed to determine their IC50 for inhibition of T. gondii CDPK1 (tgCDPK1). At least three independent replicates of the assay were conducted for each compound tested.

Compound	IC50
Nc1ncnc2c1c(C(O)c1cccnc1)nn2C1CC1 (stereo not drawn) [Compound 18, (4-amino-1-cyclopropyl-1H-pyrazolo[3,4-d]pyrimidin-3-yl)(pyridin-3-yl)methanol]	4870 nM
Nc1ncnc2c1c(Cc1cccc(Cl)c1)nn2C1CCC1 [Compound 6, 3-(3-chlorobenzyl)-1-cyclobutyl-1H-pyrazolo[3,4-d]pyrimidin-4-amine]	8.7 nM
Nc1ncnc2c1c(Cc1cccc(-c3cncnc3)c1)nn2C1CC1 [Compound 10, 1-cyclopropyl-3-(3-(pyrimidin-5-yl)benzyl)-1H-pyrazolo[3,4-d]pyrimidin-4-amine]	373 nM
Nc1ncnc2c1c(Cc1cc(F)cc(Cl)c1)nn2C1CC1 [Compound 4, 3-(3-chloro-5-fluorobenzyl)-1-cyclopropyl-1H-pyrazolo[3,4-d]pyrimidin-4-amine]	91.7 nM
Nc1ncnc2c1c(C(O)c1ccccc1)nn2C1CC1 (stereo not drawn) [Compound 16, (4-amino-1-cyclopropyl-1H-pyrazolo[3,4-d]pyrimidin-3-yl)(phenyl)methanol]	1750 nM
Nc1ncnc2c1c(Cc1cccc(F)c1)nn2C1CC1 [Compound 5, 1-cyclopropyl-3-(3-fluorobenzyl)-1H-pyrazolo[3,4-d]pyrimidin-4-amine]	25.3 nM
Nc1ncnc2c1c(Cc1cccc(-c3ccncc3)c1)nn2C1CC1 [Compound 11, 1-cyclopropyl-3-(3-(pyridin-4-yl)benzyl)-1H-pyrazolo[3,4-d]pyrimidin-4-amine]	1170 nM
Nc1ncnc2c1c(Cc1ccccc1)nn2C1CC1 [Compound 17, 3-benzyl-1-cyclopropyl-1H-pyrazolo[3,4-d]pyrimidin-4-amine]	25.4 nM
Nc1ncnc2c1c(Cc1cccc(-c3ccccc3)c1)nn2C1CC1 [Compound 9, 3-([1,1′-biphenyl]-3-ylmethyl)-1-cyclopropyl-1H-pyrazolo[3,4-d]pyrimidin-4-amine]	26.3 nM
